From PubChem BioAssay AID179 (DTP/NCI, 2004)
Calls of active or inactive are those of the source.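 How the source made its calls: active means compounds giving half or more protection of infected cells from virus-caused growth loss, again on retest; inactive means the rest.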 Where a SMILES comes first, the peptide text is derived from it. The star is where a group is joined. Boc = CC(C)(C)OC(=O)*; Bn = c1ccc(C*)cc1

Test system: CEM cells HIV-1 protection, formazan growth assay
Experiment: NCI AIDS Antiviral Assay
Details: for IC50: measured here: growth of uninfected CEM cells
Summary of the method: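 Steps: treat uninfected and HIV-1-infected human CEM cells at five drug levels; quantify growth by soluble formazan; retest any compound reaching 50% protection; classify actives from the retest.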

| SMILES | outcome | EC50 [µM] | IC50 [µM] |
| --- | --- | --- | --- |
| O=C(Nc1ccccc1)C(c1ccccc1)N(Nc1ccccc1)c1ccccc1 (centres undefined) | inactive | – | – |
| CN(C)CCn1nc(N)c2nc3cc(C(F)(F)F)ccc3nc21 | – | > 100 | 63.1 |
| Cc1ccc([N+](=O)[O-])cc1NC(=O)C(=O)C1CCC2=C(Sc3ccccc3N2)C1=O (centres undefined) | – | > 117 | > 117 |
| CCOP(=O)(OCC)/C(C#N)=C/c1cccn1N(C)C | – | > 257 | 245 |
| O=C1C2CN(Cc3ccccc3)CC2C(=O)N1c1ccccc1 (centres undefined) | – | > 200 | > 200 |
| O=C(O)c1cc(=O)c2[nH]c3ccccc3c2s1 | inactive | – | – |
| CCC1=NC(N/N=C/c2ccccc2O)=N/C1=C\c1ccccc1O | – | > 50.1 | 9.12 |
| NC(=O)C1c2ccccc2C=Cc2ccccc21 | – | > 200 | 155 |
| COc1cc(NC=O)c2c(c1)SC(c1ccccc1)C(=O)N2 (centres undefined) | – | > 200 | 56.2 |
| COC(=O)C(CC(C)C)NC(=O)C(C)NC(=O)C(Cc1ccc(OCc2ccccc2)cc1)NC(=O)C(COCc1ccccc1)NC(=O)OC(C)(C)C (centres undefined) (Boc-S(Bn)Y(Bn)AL-OMe; configuration not given here) | – | > 200 | 83.2 |
| Cc1cc2c(cc1Cl)SC(NNC(=O)c1ccncc1)=NS2(=O)=O | – | > 200 | > 200 |
| O=[N+]([O-])c1ccc(O)c(C=NCC2CCCN3CCCCC23)c1 (centres undefined) | – | > 200 | 39.8 |
| Oc1ccccc1-c1nn2c(CCCCCCCCc3nnc4sc(-c5ccccc5O)nn34)nnc2s1 | – | > 200 | 12 |
| O=C(O)/C(O)=C1/C=C(c2ccccc2)c2ccccc21 | inactive | – | – |
| CC12CC(=O)CC1(C)CC(=O)C2 (centres undefined) | – | > 537 | > 537 |
| [N-]=[N+]=Nc1nnc(CCCCc2nnc(N=[N+]=[N-])o2)o1 | – | > 468 | 138 |
| NC(=O)c1ncn(C2OC(CO)C(O)C2O)c1NC(=S)NC(=O)c1ccccc1 (centres undefined) | – | > 589 | > 589 |
| CN1CC(=O)N2Cc3ccccc3-n3cccc3C2C1 (centres undefined) | inactive | – | – |
| Cc1nnc(N)nc1/C=C\c1ccc(Cl)cc1Cl | – | > 200 | 50.1 |
| O=C(O)C1CSCN1 (centres undefined) | – | > 468 | > 468 |
| Cc1c(-c2ccccc2)sc(N)c1C#N | inactive | – | – |
| CCOC(=O)/C=C(/C=C\COC1CCCCO1)c1ccccc1 (centres undefined) | – | > 74.1 | 36.3 |

| SMILES | outcome | EC50 [µM] | IC50 [µM] |
| --- | --- | --- | --- |
| COc1ccc(CN2CC(C)N(N=Cc3c4c(O)c5c(O)c(C)c6c(c5c3O)C(=O)C(C)(O/C=C/C(OC)C(C)C(OC(C)=O)C(C)C(O)C(C)C(O)C(C)/C=C/C=C(\C)C(=O)N4)O6)C(C)C2)cc1 (centres undefined) | – | > 200 | 9.12 |
| O=C1C(C=NC(=S)c2ccccc2)=C(O)c2ccccc21 | – | > 200 | 166 |
| CCN(CC)c1c([N+](=O)[O-])c(=O)nc2ccccn12 | – | > 200 | 105 |
| CC1CC(c2ccc3ccccc3c2)NCCNC(c2ccc3ccccc3c2)CC(C)NCCN1 (centres undefined) | – | > 200 | 1.15 |
| CCOCNC(=O)N(COCC)COCC | – | > 398 | > 398 |
| C/C(CCN(C)C)=N\OC(=O)c1ccccc1 | – | > 200 | > 200 |
| CC(=O)Oc1cc2c(cc1OC(C)=O)[C@H]1CC[C@]3(C)[C@@H](OC(C)=O)CC[C@H]3[C@@H]1CC2 | – | > 200 | 10 |
| O=C(Cn1cc(Br)c(=O)[nH]c1=O)c1ccc(-c2ccccc2)cc1 | – | > 200 | > 200 |
| COC(=O)C(=O)C(C(=O)C(=O)Nc1ccc(OC)cc1[N+](=O)[O-])c1nc2ccc([N+](=O)[O-])cc2[nH]c1=O (centres undefined) | – | > 182 | 170 |
| CC(=O)O[C@]1(C(C)=O)CC[C@H]2[C@@H]3C=C(Cl)C4=CC(=O)CC[C@]4(C)[C@H]3CC[C@@]21C | – | > 200 | > 200 |
| CCOC1CSc2ccccc2C(c2ccccc2)=N1 (centres undefined) | – | 195 | > 200 |
| NC1CCC(C(=O)C2CCC(O)CC2O)CC1 (centres undefined) | – | > 200 | 18.2 |
| CC(C)CC(C#CCCOC(=O)c1ccccc1)OC(=O)c1ccccc1 (centres undefined) | – | > 200 | 95.5 |
| CCOC(=O)c1cc2c3c(c1)C(=O)CCN3CCC2=O | inactive | – | – |
| COC(=O)C(Cc1ccc2c(c1)CCCC2)Cc1cc2c(cc1C(O)OC)CCC2 (centres undefined) | – | > 200 | 55 |
| CCC(C)OC(=O)/C(Br)=C1/OC(=O)c2ccccc2-c2ccccc21 (centres undefined) | – | > 200 | 47.9 |
| C=C(C)[C@@H]1CC[C@]2(C(=O)O)CC[C@]3(C)[C@H](CC[C@@H]4[C@@]5(C)CC[C@H](C(=O)/C=C/c6ccc(O)cc6)C(C)(C)[C@@H]5CC[C@]43C)[C@@H]12 | – | > 200 | 2.34 |
| O=CC1=CCCN(CCc2c[nH]c3ccccc23)C1 | – | > 195 | 10.2 |
| C/C(=N\Nc1ccc([N+](=O)[O-])cc1[N+](=O)[O-])c1sc(-n2nc(-c3ccccc3)cc2-c2ccccc2)nc1C | – | > 126 | 42.7 |
| COc1ccc(/C=C2/C(=O)N(C(=O)c3ccc(Cl)cc3)N=C2C)cc1OC | – | > 35.5 | > 35.5 |
| CC(C)(C)C1C2N1C1(c3ccccc3)OC2(c2ccccc2)c2ccccc21 (centres undefined) | – | > 10.2 | > 10.2 |
| CC(C)N(C(=O)C12C3C4C5C3C1(C(=O)N(C(C)C)C(C)C)C5C42)C(C)C (centres undefined) | – | > 100 | > 100 |

| SMILES | outcome | EC50 [µM] | IC50 [µM] |
| --- | --- | --- | --- |
| CCN(CC)C(=S)SCC(=O)Nc1nc2c(s1)CCCC2 | – | > 20.9 | > 20.9 |
| O=C1ON(c2ccccc2)C(c2ccccc2)N1c1ccccc1 (centres undefined) | – | > 200 | 61.7 |
| COC1OC(C)/C(=N/O)C2OC(C)(C)OC12 (centres undefined) | – | > 1070 | > 1070 |
| COc1ccc(C2=C(N)c3ccccc3C2=O)cc1 | – | > 200 | > 200 |
| O=[N+]([O-])c1cc2n[nH]nc2c2nonc12 | – | > 200 | 4.79 |
| CCOC(=O)C1=NN(c2ccc(C)cc2)C2=CC(C)=NN(C)C(=S)N21 | – | > 200 | > 200 |
| O=C1CN(C2CCCCC2)CC(=O)N2CCCCN12 | – | > 200 | > 200 |
| O=C(N=Nc1ccc(Cl)cc1Cl)NNc1ccc(Cl)cc1Cl | – | > 200 | 57.5 |
| Cc1cc(Cc2cc(C)cc(S(=O)(=O)O)c2O)c(O)c(S(=O)(=O)O)c1 | – | 209 | 646 |
| CC(=O)Oc1ccc(CCC(=O)O[C@H](C(=O)O)[C@H](OC(=O)CCc2ccc(OC(C)=O)c(OC(C)=O)c2)C(=O)O)cc1OC(C)=O | – | > 53.7 | 30.2 |
| CN1C(c2ccccc2)N1C (centres undefined) | – | > 1700 | > 1700 |
| Nc1ccc(Nc2nc(F)nc(-c3c4ccccc4c4n3CCS4)n2)cc1 | – | > 7.24 | 3.63 |
| Nn1c(CCCCCCCCc2nnc(COc3c(O)ccc4ccccc34)n2N)nnc1COc1c(O)ccc2ccccc12 | – | > 200 | 170 |
| COC(=O)[C@@H]1C[C@@]2(C3C=CN(C(=O)C(F)(F)F)C=C3)c3ccccc3N(C(=O)C(F)(F)F)[C@H]2N1C(=O)OC | – | > 200 | 166 |
| Cc1ccc(SCC(CF)OC(C)n2cnc3c(=O)[nH]c(N)nc32)cc1 (centres undefined) | – | > 200 | 74.1 |
| COc1cc(NS(C)(=O)=O)ccc1Nc1c2ccccc2nc2c1[nH]c1ccc(NC3OC(CO)C(O)C(O)C3O)cc12 (centres undefined) | – | > 0.12 | 0.0468 |
| COC1N(C2C=CC(CO)O2)C(=O)NC(=O)C1(C)I (centres undefined) | – | 0.275 | 7.76 |
| NCCCS(=O)(=O)O | – | > 200 | > 200 |
| O=C1c2ccccc2C(=O)c2nc(-c3ccccc3)c(-c3ccccc3)nc21 | inactive | – | – |
| COC(=O)CC[C@@H](NC(=O)C(C)NC(=O)COC1C(O)C(COC(=O)CCCCCCCCCCNC(=O)c2ccc([N+](=O)[O-])c3[nH]c4cc(Br)ccc4c(=O)c23)OC(OCc2ccccc2)C1NC(C)=O)C(N)=O (some centres undefined) | inactive | – | – |
| CC(C)(C)SSCC(N)C(=O)O (centres undefined) | – | > 200 | > 200 |
| CCC(=O)NCC1CCCN2CCCCC12 (centres undefined) | – | > 200 | > 200 |

| SMILES | outcome | EC50 [µM] | IC50 [µM] |
| --- | --- | --- | --- |
| COc1cccc2ccc3c(c12)C(O)OC31CCc2c(C)cccc21 (centres undefined) | – | > 85.1 | 42.7 |
| CCOC(=O)c1c(N2CCCC2)[nH]c(=O)c(C(c2ccco2)c2c(O)c(C(=O)OCC)c(N3CCCC3)[nH]c2=O)c1O | – | > 200 | 117 |
| CCN(CC)CCOc1ccc(/C(C#N)=C/c2ccc3ccccc3c2)cc1 | – | > 100 | 0.933 |
| Cc1cc(O)c(/C=N/C(=S)Nc2cc(Cl)ccc2Cl)c(=O)o1 | – | > 50.1 | > 50.1 |
| COc1cc2c(c(OC3OC(CO)C(O)C(O)C3O)c1)C(=O)CC(c1ccc(O)cc1)O2 (centres undefined) | – | > 200 | 195 |
| COC(=O)CC1CCC(c2ccn(S(=O)(=O)c3ccccc3)c2)=NO1 (centres undefined) | – | > 200 | > 200 |
| Cc1ccc(-c2cc(=O)c(=O)[nH][nH]2)cc1 | – | > 200 | > 200 |
| c1ccc(C2=NOC3COc4ccccc4OCC23)cc1 (centres undefined) | – | > 93.3 | > 93.3 |
| C[C@@H]1CC[C@]2(C)C3(C)CC[C@]2(OC3=O)[C@@]12CC(c1ccoc1)OC2=O (some centres undefined) | – | > 200 | 33.9 |
| CC(=O)N(CC1CCCN(C)C1)C1C2CC3CC(C2)CC1C3 (centres undefined) | – | > 117 | 46.8 |
| N#CC(C#N)=C(C(C#N)C#N)C(C#N)C#N | inactive | – | – |
| Nc1nc(Cl)cc(NCC2(O)CC(CO)C2)n1 (centres undefined) | – | > 200 | > 200 |
| OC1CCCC1C(O)(C(F)(F)F)C(F)(F)F (centres undefined) | inactive | – | – |
| CCOC(=O)N[C@@H]1C(CC(=O)OC)O[C@H]2OC(C)(C)O[C@H]21 (some centres undefined) | – | > 832 | > 832 |
| COC1CCN(N(C)C)O1 (centres undefined) | – | > 200 | > 200 |
| [C-]#[O+].[C-]#[O+].[C-]#[O+].[Mo].c1ccc(P(CC[PH+](CC[PH+](CC[PH+](c2ccccc2)c2ccccc2)c2ccccc2)c2ccccc2)c2ccccc2)cc1 (centres undefined) | – | > 6.17 | > 6.17 |
| CC(C)(C)OC(=O)C1CC[C@@H](CC(=O)Oc2ccc([N+](=O)[O-])cc2)N1 (some centres undefined) | – | > 200 | > 200 |
| O=S(=O)(CC#CCO)c1c2ccccc2cc2ccccc12 | inactive | – | – |
| CC(=NNC(=S)Nc1ccccc1)c1cccc(C(C)=NNC(=S)Nc2ccccc2)n1 | – | > 200 | 9.33 |
